Assay results: patent EP4647082A1, “PHARMACEUTICAL COMPOSITION COMPRISING A CGRP RECEPTOR ANTAGONIST FOR THE TREATMENT OF ACUTE MIGRAINE” (NUVIE BIO, Inc., priority 2024, dated 2025)
Bridge positions count the residues as written; N and C are the ends. Square brackets hold non-standard residues; d marks the D form. Peptide text beside a SMILES is read from it. * marks the point of attachment. Phe(2-CONH2) = NC(=O)c1ccccc1C[C@H](N)C(=O)O; Orn(iPr) = CC(C)NCCC[C@H](N)C(=O)O; Oxazole2carbonyl = O=C(c1ncco1)*; 3Pal = N[C@@H](Cc1cccnc1)C(=O)O

Assays:
[1] = Degradation rates of 1 mg/mL solutions of AXN-001 at different pH and temperatures over 30 days; type: physicochemical
Protocol: To achieve the higher pH values, an isotonic 10 mM phosphate buffer was used.
The degradation rates were then determined for 1 mg/mL solutions of AXN-001 at pH 3.5, 4.5, 5.5, 6.5, and 7.5, when kept at 2-8°C, 25°C, 40°C, and 60°C for 30 days. Table 1: Degradation rates
Degradation rates at 2-8° C were not determined ("n.d.") because degradation could not be measured at thirty days (with the exception of pH 7.5).

Solubility of AXN-001 = type: physicochemical; conditions: neutral pH

CC(C)NCCC[C@@H]1NC(=O)[C@@H](NC(=O)[C@H](Cc2ccccc2C(N)=O)NC(=O)[C@H](NC(=O)c2ncco2)C(C)C)CSSC[C@@H](C(=O)N[C@@H](Cc2cccnc2)C(N)=O)NC(=O)[C@H](Cc2ccccc2)NC(=O)[C@@H]2CCCN2C(=O)CNC(=O)[C@H](C(C)C)NC(=O)[C@H](CC(=O)O)NC1=O [AXN-001, Oxazole-2-carbonyl-D-Val-Phe(2-Cbm)-c(Cys-Orn (iPr)-Asp-Val-Gly-Pro-Phe-Cys)-3Pal-NH2] (Oxazole2carbonyl-[dV][Phe(2-CONH2)]C[Orn(iPr)]DVGPFC[3Pal]-NH2; disulfide 3-10)
Degradation Rates ([1]; pH 3.5, 25°C): 0.058 %/day | Degradation Rates ([1]; pH 3.5, 40°C): 0.20 %/day | Degradation Rates ([1]; pH 3.5, 60°C): 1.50 %/day | Degradation Rates ([1]; pH 4.5, 25°C): 0.019 %/day | Degradation Rates ([1]; pH 4.5, 40°C): 0.12 %/day | Degradation Rates ([1]; pH 4.5, 60°C): 1.19 %/day | Degradation Rates ([1]; pH 5.5, 25°C): 0.007 %/day | Degradation Rates ([1]; pH 5.5, 40°C): 0.23 %/day | Degradation Rates ([1]; pH 5.5, 60°C): 3.18 %/day | Degradation Rates ([1]; pH 6.5, 25°C): 0.039 %/day | Degradation Rates ([1]; pH 6.5, 40°C): 0.54 %/day | Degradation Rates ([1]; pH 6.5, 60°C): 3.47 %/day | Degradation Rates ([1]; pH 7.5, 2-8°C): 0.02 %/day | Degradation Rates ([1]; pH 7.5, 25°C): 0.605 %/day | Degradation Rates ([1]; pH 7.5, 40°C): 1.62 %/day | Degradation Rates ([1]; pH 7.5, 60°C): 5.55 %/day | solubility (Solubility of AXN-001): low
